Calls of active or inactive are those of the source. The rule behind the calls is not given here.
Assays:
BMDM [1] = assay: Anti-osteoporosis activity in ICR mouse bone marrow macrophages assessed as inhibition of RANKL-induced c-Fos protein expression at 0.1 to 1 uM after 24 hrs by Western blot analysis; assay type: functional, cell-based
BMDM [2] = assay: Anti-osteoporosis activity in ICR mouse bone marrow macrophages assessed as inhibition of RANKL-induced NFATc1 protein expression at 0.1 to 1 uM after 24 hrs by Western blot analysis; assay type: functional, cell-based
BMDM [3] = assay: Inhibition of RANKL-induced osteoclastogenesis in ICR mouse bone marrow macrophages assessed as reduction in TRAP-positive multinucleated osteoclasts at 0.1 to 1 uM after 3 days by TRAP staining based assay; assay type: functional, cell-based
[4] = molecular target: RAC-alpha serine/threonine-protein kinase (Mus musculus) (UniProt P31750); assay: Inhibition of AKT phosphorylation in RANKL-induced ICR mouse bone marrow macrophages at 1 uM preincubated for 1 hr followed by RANKL-stimulation and measured after 5 to 30 mins by Western blot analysis
BMDM [5] = assay: Anti-osteoporosis activity in ICR mouse bone marrow macrophages assessed as inhibition of RANKL-induced NFATc1 protein expression at 10 uM after 12 to 48 hrs by Western blot analysis; assay type: functional, cell-based
BMDM [6] = assay: Inhibition of RANKL-induced osteoclastogenesis in ICR mouse bone marrow macrophages assessed as reduction in TRAP-positive multinucleated osteoclasts after 4 days by TRAP staining based assay; assay type: functional, cell-based
BMDM [7] = assay: Anti-osteoporosis activity in ICR mouse bone marrow macrophages assessed as inhibition of RANKL-induced c-Fos protein expression at 10 uM after 12 to 48 hrs by Western blot analysis; assay type: functional, cell-based
Osteoclast [8] = assay: Inhibition of bone-resorbing in ICR mouse osteoclasts assessed as reduction in resorption at 10 uM after 24 hrs by pit formation assay; assay type: functional, cell-based
BMDM [9] = assay: Anti-osteoporosis activity in ICR mouse bone marrow macrophages assessed as inhibition of RANKL-induced beta3-integrin mRNA expression at 10 uM after 12 to 48 hrs by RT-PCR analysis; assay type: functional
Mus musculus [10] = assay: Anti-resorptive activity in ICR mouse model of LPS-Induced bone loss assessed as reduction in trabecular separation in proximal femurs at 10 mg/kg, po for 8 days by micro-CT analysis; assay type: functional, organism-based
BMDM [11] = assay: Inhibition of RANKL-induced osteoclastogenesis in ICR mouse bone marrow harboring constitutively active AKT macrophages assessed as reduction in TRAP-positive multinucleated osteoclasts at 10 uM after 3 days by TRAP staining based assay; assay type: functional, cell-based
BMDM [12] = assay: Anti-osteoporosis activity in ICR mouse bone marrow macrophages assessed as inhibition of RANKL-induced MMP9 mRNA expression at 10 uM after 12 to 48 hrs by RT-PCR analysis; assay type: functional
BMDM [13] = assay: Anti-osteoporosis activity in ICR mouse bone marrow macrophages assessed as inhibition of RANKL-induced ATP6v0d2 mRNA expression at 10 uM after 12 to 48 hrs by RT-PCR analysis; assay type: functional
Mus musculus [14] = assay: Anti-resorptive activity in ICR mouse model of LPS-Induced bone loss assessed as reduction in bone loss in proximal femurs at 10 mg/kg, po for 8 days by micro-CT analysis; assay type: functional, organism-based
BMDM [15] = assay: Anti-osteoporosis activity in ICR mouse bone marrow macrophages assessed as inhibition of RANKL-induced DC-STAMP mRNA expression at 10 uM after 12 to 48 hrs by RT-PCR analysis; assay type: functional
Mus musculus [16] = assay: Anti-resorptive activity in ICR mouse model of LPS-Induced bone loss assessed as increase in bone volume per tissue volume in proximal femurs at 10 mg/kg, po for 8 days by micro-CT analysis; assay type: functional, organism-based
BMDM [17] = assay: Anti-osteoporosis activity in ICR mouse bone marrow macrophages assessed as inhibition of RANKL-induced OSCAR mRNA expression at 10 uM after 12 to 48 hrs by RT-PCR analysis; assay type: functional
BMDM [18] = assay: Anti-osteoporosis activity in ICR mouse bone marrow macrophages assessed as inhibition of RANKL-induced OC-STAMP mRNA expression at 10 uM after 12 to 48 hrs by RT-PCR analysis; assay type: functional
BMDM [19] = assay: Anti-osteoporosis activity in ICR mouse bone marrow macrophages assessed as inhibition of RANKL-induced NFATc1 mRNA expression at 10 uM after 12 to 48 hrs by RT-PCR analysis; assay type: functional, cell-based
[20] = molecular target: T1, 1-phosphatidylinositol 4,5-bisphosphate phosphodiesterase gamma-2 (Mus musculus) (UniProt Q8CIH5); assay: Inhibition of PLCgamma2 in ICR mouse bone marrow macrophages assessed as reduction in calcium influx at 10 uM after 3 days by Fluo-3/AM staining based confocal microscopic analysis
T1 sequence (whole entry): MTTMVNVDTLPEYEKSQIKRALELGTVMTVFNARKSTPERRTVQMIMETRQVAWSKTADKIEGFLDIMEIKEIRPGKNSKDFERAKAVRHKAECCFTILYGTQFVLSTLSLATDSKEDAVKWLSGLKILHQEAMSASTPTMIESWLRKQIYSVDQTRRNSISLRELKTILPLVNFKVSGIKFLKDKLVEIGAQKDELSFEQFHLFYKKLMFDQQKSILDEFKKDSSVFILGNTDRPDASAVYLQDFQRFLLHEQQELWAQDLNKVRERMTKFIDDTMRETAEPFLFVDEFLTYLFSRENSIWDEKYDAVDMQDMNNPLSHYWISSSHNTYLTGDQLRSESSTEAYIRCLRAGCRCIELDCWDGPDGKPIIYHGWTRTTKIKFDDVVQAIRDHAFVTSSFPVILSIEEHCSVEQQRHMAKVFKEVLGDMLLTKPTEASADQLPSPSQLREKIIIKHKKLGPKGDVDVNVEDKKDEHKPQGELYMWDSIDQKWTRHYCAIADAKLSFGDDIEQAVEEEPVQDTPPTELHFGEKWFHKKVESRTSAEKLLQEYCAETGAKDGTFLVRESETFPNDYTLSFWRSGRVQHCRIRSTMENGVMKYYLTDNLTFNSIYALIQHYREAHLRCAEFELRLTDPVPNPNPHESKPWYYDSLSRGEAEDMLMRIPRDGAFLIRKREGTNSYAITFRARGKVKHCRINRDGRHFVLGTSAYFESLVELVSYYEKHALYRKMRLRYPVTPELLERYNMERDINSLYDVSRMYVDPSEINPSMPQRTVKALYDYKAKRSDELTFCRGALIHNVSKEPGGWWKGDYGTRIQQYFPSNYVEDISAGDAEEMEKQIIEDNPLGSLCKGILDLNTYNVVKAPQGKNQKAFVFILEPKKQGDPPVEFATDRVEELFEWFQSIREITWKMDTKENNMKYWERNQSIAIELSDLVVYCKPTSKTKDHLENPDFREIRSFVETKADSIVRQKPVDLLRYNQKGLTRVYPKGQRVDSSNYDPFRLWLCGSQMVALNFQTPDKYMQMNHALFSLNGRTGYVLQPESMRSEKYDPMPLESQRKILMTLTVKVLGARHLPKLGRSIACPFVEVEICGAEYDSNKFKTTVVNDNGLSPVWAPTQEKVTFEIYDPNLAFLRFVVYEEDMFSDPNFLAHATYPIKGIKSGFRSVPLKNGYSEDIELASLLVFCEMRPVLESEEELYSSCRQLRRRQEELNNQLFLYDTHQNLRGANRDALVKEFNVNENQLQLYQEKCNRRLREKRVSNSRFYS

[21] = molecular target: RAC-alpha serine/threonine-protein kinase (Mus musculus) (UniProt P31750); assay: Inhibition of AKT phosphorylation in RANKL-induced ICR mouse bone marrow macrophages at 10 uM preincubated for 1 hr followed by RANKL-stimulation and measured after 5 to 30 mins by Western blot analysis
Osteoclast [22] = assay: Inhibition of bone-resorbing in ICR mouse osteoclasts assessed as downregulation of Ctsk-mRNA expression at 10 uM after 12 to 48 hrs by RT-PCR analysis; assay type: functional, cell-based
[23] = molecular target: I-kappa-B kinase (Mus musculus) (UniProt Q60680+O88351+O88522); assay: Inhibition of IKappaB phosphorylation in RANKL-induced ICR mouse bone marrow macrophages at 10 uM preincubated for 1 hr followed by RANKL-stimulation and measured after 5 to 30 mins by Western blot analysis; assay type: protein-complex assay
Mus musculus [24] = assay: Anti-resorptive activity in ICR mouse model of LPS-Induced bone loss assessed as inhibition of TRAP-positive multinucleated osteoclasts formation in femurs at 10 mg/kg, po for 8 days by TRAP staining based light microscopic analysis; assay type: functional, organism-based
[25] = molecular target: T1, 1-phosphatidylinositol 4,5-bisphosphate phosphodiesterase gamma-2 (Mus musculus); assay: Inhibition of PLCgamma2 phosphorylation in RANKL-induced ICR mouse bone marrow macrophages at 10 uM preincubated for 1 hr followed by RANKL-stimulation and measured after 5 to 30 mins by Western blot analysis
BMDM [26] = assay: Cytotoxicity against ICR mouse bone marrow macrophages assessed as reduction in cell viability up to 10 uM after 3 days by XTT assay; assay type: cell-based; conditions: 72 h
BMDM [27] = assay: Anti-osteoporosis activity in ICR mouse bone marrow macrophages assessed as inhibition of RANKL-induced c-Fos mRNA expression at 10 uM after 12 to 48 hrs by RT-PCR analysis; assay type: functional, cell-based
BMDM [28] = assay: Inhibition of RANKL-induced osteoclastogenesis in ICR mouse bone marrow macrophages harboring constitutively active IKKbeta assessed as reduction in TRAP-positive multinucleated osteoclasts at 10 uM after 3 days by TRAP staining based assay; assay type: functional, cell-based
Mus musculus [29] = assay: Anti-resorptive activity in ICR mouse model of LPS-Induced bone loss assessed as increase in trabecular bone in femurs at 10 mg/kg, po for 8 days by H and E staining based light microscopic analysis; assay type: functional, organism-based
HEK-293T = assay: Trans-suppression of NFkappaB (unknown origin) in HEK293T cells cotransfected with betagalactosidase at 10 uM incubated for 12 hrs followed by RANKL-stimulation by luciferase reporter gene assay; assay type: cell-based; conditions: Homo sapiens
Mus musculus [30] = assay: Anti-resorptive activity in ICR mouse model of LPS-Induced bone loss assessed as increase in trabecular number in proximal femurs at 10 mg/kg, po for 8 days by micro-CT analysis; assay type: functional, organism-based

Chain of RAC-alpha serine/threonine-protein kinase (Mus musculus) (P31750 whole entry): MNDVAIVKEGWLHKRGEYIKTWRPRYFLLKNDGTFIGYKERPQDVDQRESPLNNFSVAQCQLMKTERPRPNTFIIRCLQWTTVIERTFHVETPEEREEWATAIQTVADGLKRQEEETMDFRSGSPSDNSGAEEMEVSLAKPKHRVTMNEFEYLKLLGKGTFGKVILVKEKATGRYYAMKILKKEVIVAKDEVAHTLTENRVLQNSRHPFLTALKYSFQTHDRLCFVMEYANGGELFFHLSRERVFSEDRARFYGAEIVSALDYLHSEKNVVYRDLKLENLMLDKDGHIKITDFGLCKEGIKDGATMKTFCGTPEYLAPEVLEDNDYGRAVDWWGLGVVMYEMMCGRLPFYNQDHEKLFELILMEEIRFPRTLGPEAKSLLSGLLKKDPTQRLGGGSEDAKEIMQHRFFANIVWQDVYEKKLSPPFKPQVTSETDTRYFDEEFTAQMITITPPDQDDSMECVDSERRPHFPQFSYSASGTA

NC1(c2ccc(-c3nc4ccn5c(=O)[nH]nc5c4cc3-c3ccccc3)cc2)CCC1
inhibition (BMDM [1]): Active | inhibition (BMDM [2]): Active | inhibition (BMDM [3]): Active | inhibition [4]: Active

C=C(C)[C@@H]1CC[C@]2(C(=O)O)CC[C@]3(C)[C@H](CC[C@@H]4[C@@]5(C)CC[C@H](O)C(C)(C)[C@@H]5CC[C@]43C)[C@@H]12 [BETULINIC ACID]
inhibition (BMDM [5]): Active | inhibition (BMDM [6]): Dose-dependent effect | inhibition (BMDM [7]): Active | inhibition (Osteoclast [8]): Active | fold change (FC) (BMDM [9]): 2 - 4 | Activity (Mus musculus [10]): Active | inhibition (BMDM [11]): inactive | fold change (FC) (BMDM [12]): 2 - 4 | fold change (FC) (BMDM [13]): 2 - 4 | Activity (Mus musculus [14]): Active | fold change (FC) (BMDM [15]): 2 - 4 | Activity (Mus musculus [16]): Active | fold change (FC) (BMDM [17]): 2 - 4 | fold change (FC) (BMDM [18]): 2 - 4 | inhibition (BMDM [19]): Active | inhibition [20]: Active | inhibition [21]: Active | inhibition (Osteoclast [22]): Active | inhibition [23]: Active | inhibition (Mus musculus [24]): Active | inhibition [25]: Active | Activity (BMDM [26]): Non-Toxic | inhibition (BMDM [27]): Active | inhibition (BMDM [28]): Active | Activity (Mus musculus [29]): Active | Activity (HEK-293T): Active | Activity (Mus musculus [30]): Active
